Like-named read-outs stand apart in the source and are kept apart here.
Experiments:
liver = conditions: a number of in vivo models; cited from earlier work
[1] = system: human precision cut liver slices (PCLS); assay: PCLS RNA-Seq, Stimulation Protocol: TGFb/PDGF+CRV vs TGFb/PDGF+Vehicle; type: cell-based; conditions: for fold change in RNA: presence of exogenous TGFβ+PDGF-BB, universal in all donors
Description: PCLS were obtained from 5 human donors who underwent resection of liver cancer. Replicate slices were collected from healthy margins of the resections and cultured for 4 or 6 days depending on the experimental protocol. In the Nonstimulation Protocol slices were cultured for 6 days and treated for the entire period with DMSO vehicle or 5 μM CRV431. In the Stimulation Protocol slices were rested for 1 day and then administered the cytokines, TGFβ and PDGF-BB, for 3 days to stimulate inflammation and fibrosis. DMSO vehicle, CRV431 (1 and 5 μM), Alk5i (10 μM), obeticholic acid (5 μM), elafibranor (5 μM), resmetirom ([…]), and Aramchol (5 μM) were administered individually as drug treatments in the Stimulation Protocol concurrent with TGFβ+PDGF-BB. Culture medium treatments were replaced daily.
Four types of evaluations were conducted on the PCLS: (a) secretion of inflammation and fibrosis biomarkers into the culture medium, (b) histological staining and quantitation of Sirius red as a measure of tissue fibrosis, (c) gene expression of inflammation and fibrosis biomarkers by RT-PCR, and (d) RNA sequencing (RNA-Seq) of the complete transcriptome. Each of the four types of evaluation is described below: • (a) Biomarker secretion. Spent culture medium was collected daily from duplicate slices for each treatment. ELISAs were used to quantify secretion of monocyte chemoattractant protein (MCP-1), interleukin-6 (IL-6), tissue inhibitor of metalloproteinase-1 (TIMP1), hyaluronic acid, fibronectin, and collagen 1α1. For each donor the mean level of biomarker secretion in each treatment group was expressed as a percentage change relative to DMSO vehicle, the percentages averaged for all donors, and finally the mean daily percentage change calculated from all days of evaluation. Results are shown in FIG. 8A (secreted markers-% daily average change). • (b) Sirius red histological staining. […] Sirius red was quantified morphometrically in the histological sections as the percentage area with Sirius red staining in 10 sections from each treatment. In the Nonstimulation Protocol the quantity of Sirius red staining was expressed relative to the vehicle group. In the Stimulation Protocol the quantity of Sirius red staining was expressed relative to nonstimulated PCLS (0%) and TGFβ+PDGF-BB-stimulated+vehicle PCLS (100%). Results are shown in FIG. 8B (Sirius red staining for tissue fibrosis). • (c) Gene expression by RT-PCR. RNA was isolated from duplicate liver slices per treatment at the end of the experiments and evaluated by RT-PCR for 5 markers of inflammation and fibrosis: MCP-1, IL-6, TIMP1, αSMA, and collagen 1α1. β actin was used as a reference gene to calculate relative levels of each target gene RNA. […] Results are shown in FIG. 8C (gene expression by RT-PCR). • (d) Gene expression by RNA-Seq. RNA sequencing of the complete transcriptome (30 million reads per sample) was conducted on vehicle and 5 μM CRV431 treatment groups from 3 donors both from the Nonstimulation and Stimulation Protocols. Data were analyzed by bioinformatics software programs to identify genes that were differentially expressed between vehicle and CRV431 treatments.
For the evaluation done for (d), 12 samples corresponding to 3 different donor slides which underwent 4 different treatments were studied. the comparisons carried out in this analysis are: (1) TGFb/PDGF+CRV vs TGFb/PDGF+Vehicle (V), and (2) Non-stimulated+CRV vs Non-stimulated+Vehicle. […] Table 1. Samples for evaluation (d)
Quality Control check was performed in all samples. All samples had more than 30 million reads and a quality score average >35 for almost all the bases in the sequences. The duplication levels are expected as it is RNA sequencing, and different copies of the same RNA are expected to be present in the samples. All samples had good amount of reads and quality, therefore all samples passed the QC checked and were included in the analysis. […]

Compound: CC[C@@H]1NC(=O)[C@H]([C@H](O)[C@H](C)CCCCCCNC(C)=O)N(C)C(=O)[C@H](C(C)C)N(C)C(=O)[C@H](CC(C)C)N(C)C(=O)[C@H](CC(C)C)N(C)C(=O)[C@@H](C)NC(=O)[C@H](C)NC(=O)[C@H](CC(C)C)N(C)C(=O)[C@H](C(C)C)NC(=O)[C@H](CC(C)C)N(C)C(=O)[C@@H](C)N(C)C1=O [CRV431]
- anti-fibrotic activity in the liver (liver): anti-fibrotic activity
- log2FoldChange [1]: 1.025
- log2FoldChange ([1]; gene AC009053.1, TGFb/PDGF+CRV vs TGFb/PDGF+Vehicle): 1.194
- log2FoldChange ([1]; gene AC134772.2, TGFb/PDGF+CRV vs TGFb/PDGF+Vehicle): −4.561
- log2FoldChange ([1]; gene ADH1B, TGFb/PDGF+CRV vs TGFb/PDGF+Vehicle): 2.156
- log2FoldChange ([1]; gene ADH1C, TGFb/PDGF+CRV vs TGFb/PDGF+Vehicle): 1.869
- log2FoldChange ([1]; gene ADH4, TGFb/PDGF+CRV vs TGFb/PDGF+Vehicle): 2.123
- log2FoldChange ([1]; gene ADH6, TGFb/PDGF+CRV vs TGFb/PDGF+Vehicle): 1.903
- log2FoldChange ([1]; gene ADIRF, TGFb/PDGF+CRV vs TGFb/PDGF+Vehicle): 1.402
- log2FoldChange ([1]; gene APLNR, TGFb/PDGF+CRV vs TGFb/PDGF+Vehicle): 0.844
- log2FoldChange ([1]; gene ASPG, TGFb/PDGF+CRV vs TGFb/PDGF+Vehicle): 0.91
- log2FoldChange ([1]; gene ATP13A4, TGFb/PDGF+CRV vs TGFb/PDGF+Vehicle): −3.082
- log2FoldChange ([1]; gene C7, TGFb/PDGF+CRV vs TGFb/PDGF+Vehicle): 0.739
- log2FoldChange ([1]; gene CA11, TGFb/PDGF+CRV vs TGFb/PDGF+Vehicle): −1.573
- log2FoldChange ([1]; gene CBFA2T2, TGFb/PDGF+CRV vs TGFb/PDGF+Vehicle): 1.299
- log2FoldChange ([1]; gene CD93, TGFb/PDGF+CRV vs TGFb/PDGF+Vehicle): −0.613
- log2FoldChange ([1]; gene CHST1, TGFb/PDGF+CRV vs TGFb/PDGF+Vehicle): −1.087
- log2FoldChange ([1]; gene COL5A3, TGFb/PDGF+CRV vs TGFb/PDGF+Vehicle): −0.842
- log2FoldChange ([1]; gene CXADR, TGFb/PDGF+CRV vs TGFb/PDGF+Vehicle): 1.61
- log2FoldChange ([1]; gene CYP4A11, TGFb/PDGF+CRV vs TGFb/PDGF+Vehicle): 1.611
- log2FoldChange ([1]; gene CYP26A1, TGFb/PDGF+CRV vs TGFb/PDGF+Vehicle): −1.283
- log2FoldChange ([1]; gene CYP26B1, TGFb/PDGF+CRV vs TGFb/PDGF+Vehicle): −0.656
- log2FoldChange ([1]; gene DCHS1, TGFb/PDGF+CRV vs TGFb/PDGF+Vehicle): −0.686
- log2FoldChange ([1]; gene DLL4, TGFb/PDGF+CRV vs TGFb/PDGF+Vehicle): −0.69
- log2FoldChange ([1]; gene DUOX2, TGFb/PDGF+CRV vs TGFb/PDGF+Vehicle): −2.182
- fold change in RNA ([1]; gene DUOX2): −4.5 fold
- log2FoldChange ([1]; gene DVL1, TGFb/PDGF+CRV vs TGFb/PDGF+Vehicle): 0.635
- log2FoldChange ([1]; gene ENSG00000283623 (symbol NA), TGFb/PDGF+CRV vs TGFb/PDGF+Vehicle): −5.759
- log2FoldChange ([1]; gene ERVK13-1, TGFb/PDGF+CRV vs TGFb/PDGF+Vehicle): −1.125
- log2FoldChange ([1]; gene ESAM, TGFb/PDGF+CRV vs TGFb/PDGF+Vehicle): −0.573
- log2FoldChange ([1]; gene ESM1, TGFb/PDGF+CRV vs TGFb/PDGF+Vehicle): −1.401
- fold change in RNA ([1]; gene ESMI): −2.6 fold
- log2FoldChange ([1]; gene ESR1, TGFb/PDGF+CRV vs TGFb/PDGF+Vehicle): 3.688
- log2FoldChange ([1]; gene F2RL3, TGFb/PDGF+CRV vs TGFb/PDGF+Vehicle): −0.711
- log2FoldChange ([1]; gene GLYATL1, TGFb/PDGF+CRV vs TGFb/PDGF+Vehicle): 1.438
- log2FoldChange ([1]; gene GPR4, TGFb/PDGF+CRV vs TGFb/PDGF+Vehicle): −0.9
- log2FoldChange ([1]; gene GRAP, TGFb/PDGF+CRV vs TGFb/PDGF+Vehicle): −0.772
- log2FoldChange ([1]; gene HIST2H2AA4, TGFb/PDGF+CRV vs TGFb/PDGF+Vehicle): −7.504
- log2FoldChange ([1]; gene IGHV4-61, TGFb/PDGF+CRV vs TGFb/PDGF+Vehicle): 7.957
- log2FoldChange ([1]; gene IGLON5, TGFb/PDGF+CRV vs TGFb/PDGF+Vehicle): −0.851
- log2FoldChange ([1]; gene ISLR2, TGFb/PDGF+CRV vs TGFb/PDGF+Vehicle): −1.27
- log2FoldChange ([1]; gene KDM6A, TGFb/PDGF+CRV vs TGFb/PDGF+Vehicle): 0.785
- log2FoldChange ([1]; gene LAMA4, TGFb/PDGF+CRV vs TGFb/PDGF+Vehicle): −0.939

From patent publication US12409206B2, “Use of cyclosporine analogues for treating fibrosis” (Hepion Pharmaceuticals, Inc., priority 2020, dated 2025)
